# Entries after “also recorded” stand apart in the source; their conditions may differ. Positions of bridges follow the written chain, without caps; N, C: chain ends. Non-standard residues stand in square brackets, D forms with d. Residues, ends and D or L forms follow the SMILES beside them. [invdT] = inverted (3'-3') thymidine; hArg = N=C(N)NCCCC[C@H](N)C(=O)O; Mpa = O=C(O)CCS
# Tests used:
# [1] = in vivo; cited from earlier work
# human factor IXa = human factor IXa (Homo sapiens, UniProt P00740); test: APTT clotting assay: anticoagulant activity of factor IXa aptamer; settings: FIG. 5B
# [2] = in vivo; cited from earlier work; remark: listed apart in the source
# human plasma = test: APTT clotting time with antidote alone (no aptamer); assay type: biochemical
# Aptamer Ch-9.3t = test: Isothermal titration calorimetry (Example V, Table 3); assay type: binding; settings: ITC, 298K, PBS
# aptamer 9.3t [3] = test: Isothermal titration calorimetry, two-sites binding model (Table 5); settings: for K1: first stage binding; for affinity for aptamer 9.3t (in words): two-site model
# aptamer 9.3t [4] = test: APTT clotting assay: antidote reversal of factor IXa aptamer in human plasma; settings: for reversal of factor IXa aptamer (9.3t / Ch-9.3t) anticoagulant activity: antidote 2.5 μg (per 160 μl), human plasma
# aptamers 9.3t and 11F7T = test: APTT clotting assay: reversal of both aptamers simultaneously; assay type: biochemical, human; settings: protamine 2.5 μg per 160 μl
# Description: All reactions were performed in triplicate.
# [5] = tested on: Factor IXa aptamer (Ch-9.3t); test: Swine systemic anticoagulation, ACT: antidote reversal; assay type: in vivo; settings: protamine 10 mg/kg; for reversal of aptamer anticoagulation (ACT): 30 minutes post aptamer
# [6] = in vivo; cited from earlier work; remark: listed apart in the source
# aptamer 11F7T = test: APTT clotting assay: antidote reversal of factor Xa aptamer in human plasma; settings: for reversal of factor Xa aptamer (11F7T) anticoagulant activity: antidote 2.5 μg (per 160 μl), human plasma
# VWF = molecular target: T1, VWF (Homo sapiens, UniProt P04275); test: PFA-100 platelet function assay: antiplatelet activity of VWF aptamers; assay type: cell-based; settings: whole blood
# T1 construct: from tissue; host or cells: normal human whole blood
# Description: The Platelet Function Analyzer, PFA-100 (Dade Behring, Deerfield, Ill.), measures platelet function in terms of clot formation time. In this assay, collagen/ADP cartridges were used to activate the platelets. 800 μl of whole blood was mixed with aptamer in platelet binding buffer (40 μl) (150 mM NaCl; 20 mM Hepes pH:7.4; 5 mM KCl; 1 mM MgCl2 and 1 mM CaCl2) and incubated for 5 min at room temperature. Antidote molecule or platelet buffer (40 μl) was than added and incubated for 5 min at room temperature. This mixture was then added to a collagen/ADP cartridge and tested for its closing time (Harrison, Blood Rev. 19:111 (2005)). The maximum closing time of the PFA-100 is 300 seconds. Data is shown as the change in closing time. All reactions were performed in triplicate.
# [7] = 9.3t-Bi 150 nM + antidote 2.5 ug/well
# [8] = protamine 2.5 μg, aptamer 150 nM
# T1 sequence (P04275 23-2813): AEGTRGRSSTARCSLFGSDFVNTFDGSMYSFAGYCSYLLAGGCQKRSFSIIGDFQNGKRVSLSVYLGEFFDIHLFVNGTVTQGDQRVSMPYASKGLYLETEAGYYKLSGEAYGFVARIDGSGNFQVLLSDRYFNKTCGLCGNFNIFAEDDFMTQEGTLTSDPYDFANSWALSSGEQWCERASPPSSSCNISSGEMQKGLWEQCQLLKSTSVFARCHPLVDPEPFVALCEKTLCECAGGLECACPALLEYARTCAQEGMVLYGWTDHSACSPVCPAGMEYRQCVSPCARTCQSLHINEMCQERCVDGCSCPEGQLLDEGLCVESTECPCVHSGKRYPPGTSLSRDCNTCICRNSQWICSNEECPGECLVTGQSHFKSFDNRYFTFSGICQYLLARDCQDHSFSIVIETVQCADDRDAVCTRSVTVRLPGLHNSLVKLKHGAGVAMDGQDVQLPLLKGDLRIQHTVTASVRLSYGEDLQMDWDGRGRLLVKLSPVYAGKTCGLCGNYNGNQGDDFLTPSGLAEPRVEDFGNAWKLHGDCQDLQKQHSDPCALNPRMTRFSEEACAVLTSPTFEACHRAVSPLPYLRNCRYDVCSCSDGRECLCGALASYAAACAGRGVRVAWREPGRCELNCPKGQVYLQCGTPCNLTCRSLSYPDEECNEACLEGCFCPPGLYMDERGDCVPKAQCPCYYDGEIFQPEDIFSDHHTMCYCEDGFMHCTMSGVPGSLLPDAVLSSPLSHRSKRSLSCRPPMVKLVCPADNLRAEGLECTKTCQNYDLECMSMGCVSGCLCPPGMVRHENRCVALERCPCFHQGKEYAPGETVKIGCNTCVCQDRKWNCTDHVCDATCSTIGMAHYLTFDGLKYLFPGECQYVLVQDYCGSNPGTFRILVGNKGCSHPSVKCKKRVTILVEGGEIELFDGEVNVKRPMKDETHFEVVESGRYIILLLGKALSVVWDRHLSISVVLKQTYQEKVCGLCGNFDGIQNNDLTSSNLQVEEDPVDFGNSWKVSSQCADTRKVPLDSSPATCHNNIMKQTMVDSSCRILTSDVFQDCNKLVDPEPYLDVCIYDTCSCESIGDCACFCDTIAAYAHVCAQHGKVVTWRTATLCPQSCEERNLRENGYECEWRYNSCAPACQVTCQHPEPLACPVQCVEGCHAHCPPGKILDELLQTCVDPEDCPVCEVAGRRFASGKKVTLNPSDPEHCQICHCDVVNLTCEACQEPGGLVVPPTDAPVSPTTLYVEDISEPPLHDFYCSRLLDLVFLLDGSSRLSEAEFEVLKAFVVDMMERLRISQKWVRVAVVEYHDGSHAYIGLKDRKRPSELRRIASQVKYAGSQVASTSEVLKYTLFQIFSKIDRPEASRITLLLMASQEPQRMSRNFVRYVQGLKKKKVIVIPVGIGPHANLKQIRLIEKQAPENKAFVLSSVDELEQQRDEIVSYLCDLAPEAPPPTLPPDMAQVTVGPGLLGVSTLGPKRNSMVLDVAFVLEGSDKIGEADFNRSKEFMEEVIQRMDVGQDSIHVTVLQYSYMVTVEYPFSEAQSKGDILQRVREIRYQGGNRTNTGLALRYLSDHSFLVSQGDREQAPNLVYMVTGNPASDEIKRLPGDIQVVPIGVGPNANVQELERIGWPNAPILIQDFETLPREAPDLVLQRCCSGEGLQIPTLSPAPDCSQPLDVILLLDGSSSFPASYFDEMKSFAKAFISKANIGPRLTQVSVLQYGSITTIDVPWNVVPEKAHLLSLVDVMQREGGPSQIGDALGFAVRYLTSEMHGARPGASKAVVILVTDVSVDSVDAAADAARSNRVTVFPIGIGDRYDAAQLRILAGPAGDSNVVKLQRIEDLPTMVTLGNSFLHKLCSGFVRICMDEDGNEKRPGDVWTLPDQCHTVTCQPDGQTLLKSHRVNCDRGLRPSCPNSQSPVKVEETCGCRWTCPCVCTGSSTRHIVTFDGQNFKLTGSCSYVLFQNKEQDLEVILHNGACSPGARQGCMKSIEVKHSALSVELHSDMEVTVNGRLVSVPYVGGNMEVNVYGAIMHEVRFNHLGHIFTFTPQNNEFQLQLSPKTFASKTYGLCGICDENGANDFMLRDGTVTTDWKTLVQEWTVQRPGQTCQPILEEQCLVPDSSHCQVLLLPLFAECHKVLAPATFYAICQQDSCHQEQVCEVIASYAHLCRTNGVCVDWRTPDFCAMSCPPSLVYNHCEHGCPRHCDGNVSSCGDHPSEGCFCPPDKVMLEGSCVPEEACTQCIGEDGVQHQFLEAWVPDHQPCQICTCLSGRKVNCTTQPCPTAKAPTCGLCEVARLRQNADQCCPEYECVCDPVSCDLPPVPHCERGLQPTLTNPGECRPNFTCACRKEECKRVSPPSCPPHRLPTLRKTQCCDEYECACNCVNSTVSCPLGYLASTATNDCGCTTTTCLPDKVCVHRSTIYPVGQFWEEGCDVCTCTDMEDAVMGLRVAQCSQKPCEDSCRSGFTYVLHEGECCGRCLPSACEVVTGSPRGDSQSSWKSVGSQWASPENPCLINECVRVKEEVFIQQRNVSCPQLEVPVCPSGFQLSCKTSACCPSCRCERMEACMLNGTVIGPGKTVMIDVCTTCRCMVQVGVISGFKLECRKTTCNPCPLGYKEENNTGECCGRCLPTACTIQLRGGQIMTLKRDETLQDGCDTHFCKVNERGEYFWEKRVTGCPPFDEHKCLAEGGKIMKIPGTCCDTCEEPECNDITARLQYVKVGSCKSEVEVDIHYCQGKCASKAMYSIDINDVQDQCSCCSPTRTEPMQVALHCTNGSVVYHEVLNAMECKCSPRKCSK
# human factor IXa, sequence (P00740 227-461 limits assumed): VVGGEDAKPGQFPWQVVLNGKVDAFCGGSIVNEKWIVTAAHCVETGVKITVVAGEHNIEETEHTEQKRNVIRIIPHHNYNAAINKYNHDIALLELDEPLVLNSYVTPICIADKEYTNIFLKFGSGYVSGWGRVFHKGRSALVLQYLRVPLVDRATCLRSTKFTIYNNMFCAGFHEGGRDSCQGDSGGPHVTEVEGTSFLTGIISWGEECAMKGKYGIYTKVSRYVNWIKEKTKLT
# human factor IXa, sequence (P00740 47-191 limits assumed): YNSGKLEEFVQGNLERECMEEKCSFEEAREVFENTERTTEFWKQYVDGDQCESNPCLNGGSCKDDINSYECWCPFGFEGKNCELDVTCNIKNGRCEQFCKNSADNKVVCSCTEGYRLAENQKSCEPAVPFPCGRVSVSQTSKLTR
molecule,measurement,setting,value
N=C(N)NCCCC[C@@H]1NC(=O)CCSSC[C@@H](C(N)=O)NC(=O)[C@@H]2CCCN2C(=O)[C@H](Cc2c[nH]c3ccccc23)NC(=O)[C@H](CC(=O)O)NC(=O)CNC1=O [eptifibatide] ([Mpa][hArg]GDWPC-NH2; disulfide 1-7),time for clearance of the compound,[1],2 to 4 h
"9.3t: factor IXa aptamer, 37 nt 2′fluoropyrimidine modified ssRNA, no carrier (SEQ ID NO: 1) (AUGGGGACUAUACCGCGUAAUGCUGCCUCCCCAUU; 2'-fluoro at CU, RNA at AG, 3' [invdT], backbone not given here)",anticoagulant activity (in words),human factor IXa,potent anticoagulant
β-cyclodextrin-containing polycation (imidazole-containing variant) [CDP-Im],safety profile,[2],favorable safety profile
NCCCNCCCCNCCCN [Spermine],APTT clotting time,human plasma; antidote 1.3 ug/well,63.8 s
same,Binding constant,Aptamer Ch-9.3t,8800 M⁻¹
same,affinity with aptamer 9.3t (in words),Aptamer Ch-9.3t,No significant binding
same,K1,aptamer 9.3t [3],1.63e+06 M⁻¹
same,K2,aptamer 9.3t [3]; second stage binding,126000 M⁻¹
same,affinity for aptamer 9.3t (in words),aptamer 9.3t [3],orders of magnitude lower
same,APTT clotting time,aptamer 9.3t [4]; 9.3t-Bi 150 nM + antidote 1.3 ug/well,72.7 s
same,Comments: reversal over antidote range,"aptamer 9.3t [4]; 9.3t-Bi 150 nM, antidote 1.3 ug/well-10 ug/well",Did not work b/w 1.3 ug/well-10 ug/well
Protamine,duration of simultaneous reversal,aptamers 9.3t and 11F7T,maintained for at least an hour
same,reversal of both aptamers' activity simultaneously,aptamers 9.3t and 11F7T,reverses
same,reversal of both aptamers' activity simultaneously,aptamers 9.3t and 11F7T; listed as protamine,reverse the anticoagulant activity of the two aptamers simultaneously
same,APTT clotting time,human plasma; antidote 2.5 ug/well,24 s
same,K1,aptamer 9.3t [3],3.09e+07 M⁻¹
same,affinity for aptamer 9.3t (in words),aptamer 9.3t [3],significant and similar affinities
same,time to return of ACT to baseline / reversal,[5],within five minutes
same,reversal of aptamer anticoagulation (ACT),[5],reverses
same,reversal of aptamer anticoagulation (ACT),[5]; listed as protamine,total reversal; also recorded: complete reversal
same,duration of reversal,[5]; Example IV,at least one hour
same,duration of reversal (remainder of the experiment),[5]; Example VI,60 min
same,side effects of administration,[6],associated with several side effects
same,reversal of factor Xa aptamer (11F7T) anticoagulant activity,aptamer 11F7T; aptamer 250 nM,reverses
same,reversal of factor Xa aptamer (11F7T) anticoagulant activity,"aptamer 11F7T; aptamer 250 nM, listed as protamine",totally reverse
same,duration of reversal in vitro (APTT),aptamer 11F7T; protamine,at least 60 minutes
same,time after protamine administration to total reversal,"aptamer 11F7T; protamine 2.5 μg, aptamer 250 nM",≤ 5 min
same,protamine concentration for total reversal relative to that routinely used to reverse heparin's anticoagulant activity,"aptamer 9.3t [4]; 2.5 μg protamine, both aptamers 9.3t and 11F7T, lower",2 fold
same,APTT clotting time,aptamer 9.3t [4]; [7],30.3 s
same,Reversal,aptamer 9.3t [4]; [7],Yes
same,reversal of factor IXa aptamer (9.3t / Ch-9.3t) anticoagulant activity,aptamer 9.3t [4]; aptamer 150 nM,reverses
same,reversal of factor IXa aptamer (9.3t / Ch-9.3t) anticoagulant activity,"aptamer 9.3t [4]; aptamer 150 nM, listed as protamine",returned the clotting time to normal; also recorded: totally reverse
same,duration of reversal in vitro (APTT),aptamer 9.3t [4]; protamine,at least 60 minutes
same,duration of reversal,aptamer 9.3t [4]; [8],maintained for at least an hour
same,time after protamine addition to return of clotting time to normal,aptamer 9.3t [4]; [8],≤ 5 min
"NCCCCNCCCN [spermidine, Spermidine]",affinity with aptamer 9.3t (in words),Aptamer Ch-9.3t,No significant binding
"VWF aptamer 9.3: Von Willebrand factor aptamer (SEQ ID NO: 5) (nucleic acid, listed as RNA, chemistry not given here) GGGAGGACGAUGCGGAUCGCGCUCUCCUGCUUAAGCAGCUAUCAAAUAGCCCACUCAGACGACUCGCUGAGGAUCCGAGA",inhibition of platelet function,VWF,can inhibit platelet function
"VWF aptamer 9.14: Von Willebrand factor aptamer (SEQ ID NO: 3) (nucleic acid, listed as RNA, chemistry not given here) GGGAGGACGAUGCGGUGGACGAACUGCCCUCAGCUACUUUCAUGUUGCUGACGCACAGACGACUCGCUGAGGAUCCGAGA",inhibition of platelet function,VWF,can inhibit platelet function

# From patent publication US9901553B2, “Method of modulating the activity of a nucleic acid molecule” (DUKE UNIVERSITY, priority 2007, dated 2018)
